Measured values reported in article PMC12349723, “Computationally accelerated identification of P-glycoprotein inhibitors” (PLOS One, 2025).

tested on: DU145 cells; test: MTT viability assay, non-P-gp overexpressing DU145 parental line, with or without PTX; type: cell-based, human; details: 15 µM compound + PTX vs PTX alone
Procedure: The chemotherapeutic sensitive DU145 human prostate cancer cells and the multidrug resistant sub-line, DU145-TXR, were generous gifts from Dr. Evan Keller (University of Michigan, Ann Arbor, MI). The MDR, P-gp overexpressing DU145-TXR cells were maintained under positive selection pressure by supplementing complete medium with 10 nM paclitaxel (Acros Organics, NJ). […] The MDR, P-gp overexpressing A2780-ADR cell line was maintained under positive selection pressure by supplementing complete medium with 100 nM doxorubicin (Fisher Scientific, NJ). The non-cancerous HFL1 (human lung fibroblast) cell line cell line was a generous gift from Dr. Robert Harrod (Southern Methodist University, Dallas, TX) and was maintained in complete F12K media consisting of F12K with 10% fetal bovine serum, 100 U/mL penicillin, and 100 µg/mL streptomycin (Gibco). Flasks and 96 well plates that were used with the non-cancerous line HFL1 were pre-treated with 0.1 mg/ml Collagen Type 1 (Gibco) and rinsed with PBS (Fisher).
Culture of the DU145, DU145-TXR, and HFL1 cell lines was performed as described in [8]. Culture of the A2780 and A2780-ADR cell lines was performed as described in [9]. MTT assays were performed as described in [8] with minor modifications. […] Data represent the mean of two separate experiments, with n = 3 samples per experiment (n = 6 total) (S4 Table).
MTT assays measure the reduction of yellow, water soluble 3-(4,5-dimethylthiazol-2-yl)-2,5-diphenyltetrazolium bromide (MTT) to blue, insoluble formazan crystals by cellular reductase processes in living cells. Cells were trypsinized from monolayers and seeded in complete medium in 96 well plates. Cancerous cell lines (DU145, DU145-TXR, A2780, A2780-ADR) were seeded at 3,000 cells per well in complete RPMI medium. The non-cancerous HFL1 line was seeded at 4,000 cells per well in complete F12K medium, in collagen-treated plates (Collagen Type 1, Gibco). Cells were incubated with experimental compounds for 48 hours at 37 °C and 5% CO2 in a humidified incubator. At 48 hours, MTT was added (20 µL/well of 5 mg/mL MTT in PBS) to each well. After incubation for 4 hours, the media was removed, and the formazan crystals were dissolved in 100 µL DMSO per well. Plates containing the semi-adherent A2780 or A2780-ADR lines were spun at 1400 rpm for 3 minutes prior to aspiration of media, and the addition of DMSO. Plates were shaken for 10 minutes at 500 rpm on an Orbital shaker (LabDoctor from MidSci, St Louis, MO). The absorbance was measured at 570 nm using a Bio-Tek Cytation 5 (Bio-Tek, Winooski, VT). The measured absorbance value was correlated with the number of metabolically active cells in that well, corrected for absorbance of media. The percent of cell viability (termed ‘survival’ here) was calculated as a percentage of survival of the control condition, which refers to vehicle-treated (DMSO as vehicle) cells, or vehicle-and-chemotherapeutic-treated cells, if testing a compound’s ability to re-sensitize cells to a chemotherapeutic. Percent survival was calculated using the following equation:
% Survival=100 × absorbance of experimental cells/mean absorbance of control treated cells
For DU145-TXR, DU145, HFL1 and A2780 cells – data are the mean ± one standard deviation, 8 samples per compound, from at least two independent trials per compound. […] For A2780-ADR cells, data are the mean ± one standard deviation with 12 samples per compound, from at least two independent trials per compound.
67 compounds were chosen from computational screens for testing in vitro. A) DU145-TXR cells were exposed to 15 µM experimental compound with or without 500 nM of the P-gp substrate and chemotherapeutic paclitaxel (PTX).

Compound	Sensitization of DU145 cells to PTX
COc1cccc(N2CCN(c3ccc4nnc(CCC(=O)Nc5ccc(F)c(F)c5)n4n3)CC2)c1 [Compound 101, COc1cccc(c1)N1CCN(CC1)c1ccc2nnc(CCC(=O)Nc3ccc(F)c(F)c3)n2n1]	insignificantly sensitize DU145 cells to PTX
Cc1ccc(-c2noc(-c3cn(Cc4ccc(NS(=O)(=O)c5ccccc5F)cc4)cn3)n2)cc1 [Compound 103, Cc1ccc(cc1)-c1noc(n1)-c1cn(Cc2ccc(NS(=O)(=O)c3ccccc3F)cc2)cn1]	insignificantly sensitize DU145 cells to PTX

same assay, conditions: DU145 cells, 48 h, mean of 8 samples

Compound	% Survival, Mean, 15 µM compound + 500 nM PTX
CCN1CCN(Cc2c(C(=O)N/N=C3/C(=O)N(C)c4ccccc43)nnn2-c2nonc2N)CC1 [Compound 61, CCN1CCN(Cc2c(nnn2-c2nonc2N)C(=O)N\N=C2\C(=O)N(C)c3ccccc23)CC1]	14.3%
COc1cccc(N2CCN(c3ccc4nnc(CCC(=O)Nc5ccc(F)c(F)c5)n4n3)CC2)c1 [Compound 101, COc1cccc(c1)N1CCN(CC1)c1ccc2nnc(CCC(=O)Nc3ccc(F)c(F)c3)n2n1]	24.0%
Cc1ccc(-c2noc(-c3cn(Cc4ccc(NS(=O)(=O)c5ccccc5F)cc4)cn3)n2)cc1 [Compound 103, Cc1ccc(cc1)-c1noc(n1)-c1cn(Cc2ccc(NS(=O)(=O)c3ccccc3F)cc2)cn1]	29.4%

same assay, conditions: DU145 cells, 48 h, single samples, 2 trials x 4 samples

Compound	% Survival, 15 µM Compound alone (individual samples)
COc1cccc(N2CCN(c3ccc4nnc(CCC(=O)Nc5ccc(F)c(F)c5)n4n3)CC2)c1 [Compound 101, COc1cccc(c1)N1CCN(CC1)c1ccc2nnc(CCC(=O)Nc3ccc(F)c(F)c3)n2n1]	89%

same assay, conditions: Homo sapiens, DU-145, 48 h, DU145 cells, 48 h, mean of 8 samples, read-out: % Survival, Mean, 15 µM Compound alone

Compound	viability at 15 µM
CCN1CCN(Cc2c(C(=O)N/N=C3/C(=O)N(C)c4ccccc43)nnn2-c2nonc2N)CC1 [Compound 61, CCN1CCN(Cc2c(nnn2-c2nonc2N)C(=O)N\N=C2\C(=O)N(C)c3ccccc23)CC1]	55.6%
COc1cccc(N2CCN(c3ccc4nnc(CCC(=O)Nc5ccc(F)c(F)c5)n4n3)CC2)c1 [Compound 101, COc1cccc(c1)N1CCN(CC1)c1ccc2nnc(CCC(=O)Nc3ccc(F)c(F)c3)n2n1]	89.9%
Cc1ccc(-c2noc(-c3cn(Cc4ccc(NS(=O)(=O)c5ccccc5F)cc4)cn3)n2)cc1 [Compound 103, Cc1ccc(cc1)-c1noc(n1)-c1cn(Cc2ccc(NS(=O)(=O)c3ccccc3F)cc2)cn1]	77.7%

same assay, conditions: Homo sapiens, DU-145, 48 h, DU145 cells, 48 h, single samples, 2 trials x 4 samples, read-out: % Survival, 15 µM Compound alone (individual samples)

Compound	viability at 15 µM
COc1cccc(N2CCN(c3ccc4nnc(CCC(=O)Nc5ccc(F)c(F)c5)n4n3)CC2)c1 [Compound 101, COc1cccc(c1)N1CCN(CC1)c1ccc2nnc(CCC(=O)Nc3ccc(F)c(F)c3)n2n1]	92%

target: T1, P-gp (Homo sapiens, UniProt P08183); test: LC-MS/MS intracellular accumulation assay with or without tariquidar (P-gp transport substrate test) in DU145-TXR cells; type: in vitro ADME; details: DU145-TXR, 5 µM compound with or without 500 nM tariquidar, 2.5 h, LC-MS/MS
T1 construct: The MDR, P-gp overexpressing DU145-TXR cells were maintained under positive selection pressure; endogenous in cells; host or cells: DU145-TXR (paclitaxel-resistant sub-line of DU145 human prostate cancer cells)
Procedure: DU145-TXR cells were seeded at 350,000 cells per well in 6-well plates in complete RPMI medium. […] A full sample of DAU was also prepared for quantitative analysis. […] Media was removed with a glass vacuum aspirator. Cells were re-suspended and washed in 2mL of ice-cold Hank’s Balanced Salt Solution (HBSS, Gibco), and spun again at 2400 rpm. Cell lysates were diluted in 600 µL of ice-cold HBSS, flash-frozen in liquid nitrogen, and stored at −80 °C until analysis. LC-MS/MS intracellular accumulation assays were performed in collaboration with the Pharmacology Core at the University of Texas Southwestern Medical Center (UTSW). […] This method allowed us to quantify the change – if any – in the relative amount of compound present in the samples when TQR was added. An increase in the relative amount of compound indicates enhanced intracellular retention that compound. […] The “Internal Standard” (IS) is a known substance added in a constant amount to each sample. The “Peak Area”, expressed as “counts”, describes the number of MS/MS spectra from the experimental compound and serves as a measure of its relative abundance. […] These values allow a comparison of the relative abundance of compound between the “- TQR” and “+ TQR” samples, and to test for statistically significant differences. LC-MS/MS quantification was performed as follows. Cell lysate was aliquoted into Eppendorf tubes. In contrast to [9], blank cell lysates were not spiked with varying concentrations of each compound to create a standard curve, since compound amounts were normalized to abundance of the internal standard. […] The supernatant was then transferred to an HPCL vial, and subsequently analyzed using LC-MS/MS using a Sciex 4000QTRAP mass spectrometer coupled to a Shimadzu Prominence LC. […] The column flow rate was 1.5 ml/min using an Agilent C18 XDB, 5 micron packing 50 × 4.6 mm column. […] A BSA standard curve was then prepared in water and mixed using the same ratio. […] The ratio of Analyte to Internal Standard was normalized to the lysate content for each individual sample. […] Statistical significance was determined using a Student’s T Test in GraphPad Prism. We aimed to identify P-gp inhibitors that are not transport substrates of the pump itself. […] To test these predictions in vitro, liquid chromatography with tandem mass spectrometry (LC-MS/MS) was used to assess the intracellular accumulation of experimental compounds as described in [9]. […] The relative intracellular accumulation of each experimental compound was then assessed using LC-MS/MS. […] The P-gp substrate and chemotherapeutic daunorubicin (DAU) was used as a positive control for P-gp-mediated transport.

T1 sequence (P08183 whole entry): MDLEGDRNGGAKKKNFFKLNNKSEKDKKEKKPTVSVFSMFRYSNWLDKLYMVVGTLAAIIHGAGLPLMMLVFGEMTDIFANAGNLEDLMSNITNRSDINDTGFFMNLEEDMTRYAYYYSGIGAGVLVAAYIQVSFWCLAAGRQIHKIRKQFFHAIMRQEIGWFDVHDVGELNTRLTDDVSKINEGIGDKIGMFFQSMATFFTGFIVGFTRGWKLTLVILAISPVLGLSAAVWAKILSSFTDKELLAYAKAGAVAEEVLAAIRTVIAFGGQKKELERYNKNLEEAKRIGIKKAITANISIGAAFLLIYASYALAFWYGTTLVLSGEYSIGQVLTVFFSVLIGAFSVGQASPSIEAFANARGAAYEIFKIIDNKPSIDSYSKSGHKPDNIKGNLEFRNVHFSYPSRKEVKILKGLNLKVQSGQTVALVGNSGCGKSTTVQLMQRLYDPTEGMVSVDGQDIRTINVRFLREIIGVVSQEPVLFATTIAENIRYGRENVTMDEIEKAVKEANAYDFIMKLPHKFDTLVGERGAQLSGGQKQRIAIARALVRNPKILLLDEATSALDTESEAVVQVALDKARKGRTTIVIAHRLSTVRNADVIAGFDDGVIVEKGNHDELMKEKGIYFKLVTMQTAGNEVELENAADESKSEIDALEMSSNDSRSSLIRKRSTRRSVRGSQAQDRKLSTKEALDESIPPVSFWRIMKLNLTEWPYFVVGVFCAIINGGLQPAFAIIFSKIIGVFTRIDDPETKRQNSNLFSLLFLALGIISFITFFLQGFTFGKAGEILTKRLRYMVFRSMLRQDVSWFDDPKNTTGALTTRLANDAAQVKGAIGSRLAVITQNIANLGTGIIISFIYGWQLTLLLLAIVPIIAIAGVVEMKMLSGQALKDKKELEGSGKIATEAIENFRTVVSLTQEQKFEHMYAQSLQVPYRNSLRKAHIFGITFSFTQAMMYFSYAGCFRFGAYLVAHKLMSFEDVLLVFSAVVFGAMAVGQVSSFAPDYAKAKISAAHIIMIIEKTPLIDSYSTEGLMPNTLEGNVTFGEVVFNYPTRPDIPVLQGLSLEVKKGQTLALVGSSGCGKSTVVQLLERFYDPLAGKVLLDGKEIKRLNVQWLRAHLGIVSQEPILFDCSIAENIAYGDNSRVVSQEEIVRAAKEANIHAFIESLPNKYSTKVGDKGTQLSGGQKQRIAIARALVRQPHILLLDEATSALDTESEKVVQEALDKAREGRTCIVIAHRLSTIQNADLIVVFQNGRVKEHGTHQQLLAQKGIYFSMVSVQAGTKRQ

Compound	P-gp transport substrate assessment
COc1cccc(N2CCN(c3ccc4nnc(CCC(=O)Nc5ccc(F)c(F)c5)n4n3)CC2)c1 [Compound 101, COc1cccc(c1)N1CCN(CC1)c1ccc2nnc(CCC(=O)Nc3ccc(F)c(F)c3)n2n1]	unlikely to be transport substrates of P-gp
Cc1ccc(-c2noc(-c3cn(Cc4ccc(NS(=O)(=O)c5ccccc5F)cc4)cn3)n2)cc1 [Compound 103, Cc1ccc(cc1)-c1noc(n1)-c1cn(Cc2ccc(NS(=O)(=O)c3ccccc3F)cc2)cn1]	potential P-gp transport substrates

same assay, conditions: DU145-TXR, 5 µM compound, 2.5 h, with 500 nM tariquidar; mean ± SD, triplicate

Compound	Intracellular accumulation (normalized ratio of compound to internal standard), Trial 1, + TQR	Intracellular accumulation (normalized ratio of compound to internal standard), Trial 2, + TQR	Intracellular accumulation (normalized ratio of compound to internal standard), Trial 3, + TQR
CCN1CCN(Cc2c(C(=O)N/N=C3/C(=O)N(C)c4ccccc43)nnn2-c2nonc2N)CC1 [Compound 61, CCN1CCN(Cc2c(nnn2-c2nonc2N)C(=O)N\N=C2\C(=O)N(C)c3ccccc23)CC1]	0.076 ± 0.001	0.027 ± 0.011	0.126 ± 0.010
COc1cccc(N2CCN(c3ccc4nnc(CCC(=O)Nc5ccc(F)c(F)c5)n4n3)CC2)c1 [Compound 101, COc1cccc(c1)N1CCN(CC1)c1ccc2nnc(CCC(=O)Nc3ccc(F)c(F)c3)n2n1]	12.03 ± 2.45	22.88 ± 2.92	
Cc1ccc(-c2noc(-c3cn(Cc4ccc(NS(=O)(=O)c5ccccc5F)cc4)cn3)n2)cc1 [Compound 103, Cc1ccc(cc1)-c1noc(n1)-c1cn(Cc2ccc(NS(=O)(=O)c3ccccc3F)cc2)cn1]	5.61 ± 1.34	3.75 ± 0.34	3.73 ± 0.15

same assay, conditions: DU145-TXR, 5 µM compound, 2.5 h, without tariquidar; mean ± SD, triplicate

Compound	Intracellular accumulation (normalized ratio of compound to internal standard), Trial 1, - TQR	Intracellular accumulation (normalized ratio of compound to internal standard), Trial 2, - TQR	Intracellular accumulation (normalized ratio of compound to internal standard), Trial 3, - TQR
CCN1CCN(Cc2c(C(=O)N/N=C3/C(=O)N(C)c4ccccc43)nnn2-c2nonc2N)CC1 [Compound 61, CCN1CCN(Cc2c(nnn2-c2nonc2N)C(=O)N\N=C2\C(=O)N(C)c3ccccc23)CC1]	0.023 ± 0.002	0.016 ± 0.006	0.021 ± 0.004
COc1cccc(N2CCN(c3ccc4nnc(CCC(=O)Nc5ccc(F)c(F)c5)n4n3)CC2)c1 [Compound 101, COc1cccc(c1)N1CCN(CC1)c1ccc2nnc(CCC(=O)Nc3ccc(F)c(F)c3)n2n1]	11.86 ± 1.16	21.17 ± 3.59	
Cc1ccc(-c2noc(-c3cn(Cc4ccc(NS(=O)(=O)c5ccccc5F)cc4)cn3)n2)cc1 [Compound 103, Cc1ccc(cc1)-c1noc(n1)-c1cn(Cc2ccc(NS(=O)(=O)c3ccccc3F)cc2)cn1]	5.13 ± 0.6	2.63 ± 0.52	3.21 ± 0.23

same assay, conditions: Student's T test of the mean

Compound	P (- TQR vs + TQR), Trial 1	P (- TQR vs + TQR), Trial 2	P (- TQR vs + TQR), Trial 3
CCN1CCN(Cc2c(C(=O)N/N=C3/C(=O)N(C)c4ccccc43)nnn2-c2nonc2N)CC1 [Compound 61, CCN1CCN(Cc2c(nnn2-c2nonc2N)C(=O)N\N=C2\C(=O)N(C)c3ccccc23)CC1]	2 x 10^-6	0.2	0.0001
COc1cccc(N2CCN(c3ccc4nnc(CCC(=O)Nc5ccc(F)c(F)c5)n4n3)CC2)c1 [Compound 101, COc1cccc(c1)N1CCN(CC1)c1ccc2nnc(CCC(=O)Nc3ccc(F)c(F)c3)n2n1]	0.9	0.6	
Cc1ccc(-c2noc(-c3cn(Cc4ccc(NS(=O)(=O)c5ccccc5F)cc4)cn3)n2)cc1 [Compound 103, Cc1ccc(cc1)-c1noc(n1)-c1cn(Cc2ccc(NS(=O)(=O)c3ccccc3F)cc2)cn1]	0.6	0.04	0.03

same assay, conditions: significant difference = likely P-gp transport substrate

Compound	Significance of accumulation with tariquidar, Trial 1	Significance of accumulation with tariquidar, Trial 2	Significance of accumulation with tariquidar, Trial 3
COc1cccc(N2CCN(c3ccc4nnc(CCC(=O)Nc5ccc(F)c(F)c5)n4n3)CC2)c1 [Compound 101, COc1cccc(c1)N1CCN(CC1)c1ccc2nnc(CCC(=O)Nc3ccc(F)c(F)c3)n2n1]	N.S. (P > 0.05 = not significant (N.S.))	N.S. (P > 0.05 = not significant (N.S.))	
Cc1ccc(-c2noc(-c3cn(Cc4ccc(NS(=O)(=O)c5ccccc5F)cc4)cn3)n2)cc1 [Compound 103, Cc1ccc(cc1)-c1noc(n1)-c1cn(Cc2ccc(NS(=O)(=O)c3ccccc3F)cc2)cn1]	N.S. (P > 0.05 = not significant (N.S.))	* (P < 0.05 = *)	* (P < 0.05 = *)
